Assay results: patent publication EP0316212B1 (priority 1987, dated 1989)
Like-named read-outs stand apart in the source and are kept apart here.

Key:
HIV1 = HIV1 infection of human lymphocytes preincubated with antibodies or NP derivatives, reverse transcriptase in supernatants; format: cell-based; conditions: for activité reverse transcriptase (surnageants de culture): dérivés NP, concentration not given
Description: (§1) La technique de culture et de titrage de la reverse-transcriptase du HIV est rappelée ci-après : Des lymphocytes humains, préalablement activés par la PHA (phytohémagglutinine) sont incubés dans un milieu nutritif (RPMI 1640 + sérum de veau foetal + antibiotiques + β-mercaptoéthanol 10⁻⁵M + 2»g/ml polybrene + sérum anti-interféron 1/2000 + IL2 10%). Après centrifugation, le culot cellulaire est mis en présence du HIV1 (10.000 cpm/10⁶ cellules) pendant 1 heure à 37°. Après lavage et centrifugation, les cellules sont resuspendues dans du milieu nutritif. Les surnageants de culture cellulaire sont suivis pendant plusieurs jours pour leur activité reverse transcriptase. Ils sont centrifugés 7 minutes à 95000 tours et le culot est lysé par du Triton® 0,1% (produit Touzart et Matignon). Un mélange réactionnel est ajouté (Tris, DTT (dithiothreitol), MgCl₂, KCl, PolyA, Oligo dT, ³HTTP, H₂O) et après 1 heure d'incubation à 37°C, la réaction est arrêtée avec du pyrophosphate de sodium et de l'acide nucléique de levure est ajouté pour aider la précipitation. De l'acide trichloracétique (TCA) est ajouté et la solution est laissée 15 minutes à 4°C. Après filtration sous vide avec des filtres millipores 0.45 »m et plusieurs lavages avec du TCA (0.5%), on procède au rinçage à l'éthanol, au sèchage en étuve 37° et enfin au comptage.
Les lymphocytes humains, préalablement activés par la PHA, sont incubés en présence des AcN, des anticorps anti-NP et des dérivés NP (DNP-glycine, DNP-lysine) pendant une nuit à 37°C. Le lendemain, le culot cellulaire est mis en présence du HIV1 pendant 1 heure à 37°C au bain-marie et les cellules sont resuspendues dans du milieu nutritif en présence des produits à tester. Les surnageants de culture sont testés pour l'activité reverse transcriptase pendant 3 semaines.

[1] = system: VSV (Vesicular Stomatitis Virus); assay: microbe, parasite or virus in culture; format: cell-based
[2] = system: HVE (Herpes Virus Eidolon); assay: Plaque method, neutralisation of HVE by coupled NP (TCC31 cells); format: cell-based
Description: L'effet des NP couplés (TNP-BSA, DNP-Glycine) a été évalué par la méthode des plages, comme pour le virus de la chorioméningite lymphocytaire dans l'exemple I. L'effet neutralisant des NP couplés a été évalué sur les virus enveloppés ou non enveloppés suivants :
C'est un virus de l'herpès à double brin d'ADN que l'on cultive sur des cellules TCC31 de souris. Les résultats sont observés après 2 Jours de culture.
Pour tous les virus testés, les dilutions des virus donnaient 50 plages/cupule.

[3] = biological target: reverse transcriptase du HIV1 (Human immunodeficiency virus type 1 group M subtype B, UniProt P04585); assay: Reverse transcriptase activity of HIV1 incubated with NP derivatives, tested immediately; format: biochemical; conditions: témoin virus 11924
Description: as §1
Le HIV1 est incubé 1 heure à 37° en présence d'AcN (D23, 621, N5-12), d'anticorps anti-NP (TNP11) ou en présence des dérivés NP (DNP-glycine et DNP-lysine). L'activité reverse transcriptase du HIV1 est testée immédiatement (cas des dérivés DNP-glycine et DNP-lysine). Alternativement, des lymphocytes humains sont infectés par le HIV1 préincubé avec les produits à tester, et la culture cellulaire est observée pendant 3 semaines par titrage de la reverse transcriptase. Durant cette période les cultures des lymphocytes humains ne contiennent pas d'anticorps ni d'antigène.

[4] = system: IHDT-6 (International Health Division-Tumor-6); format: cell-based
[5] = Vesicular stomatitis virus, L929

For `O=C(O)CNc1ccc([N+](=O)[O-])cc1[N+](=O)[O-]` [DNP-glycine, DNP-Glycine], the “activité reverse transcriptase (surnageants de culture)” value (HIV1; 3 jours après l'infection, témoin virus 562) was 1064, the “activité reverse transcriptase (surnageants de culture)” value (HIV1; 6 jours après l'infection, témoin virus 1274) was 890 and the “activité reverse transcriptase (surnageants de culture)” value (HIV1; 10 jours après l'infection, témoin virus 94474) was 1234. The “activité reverse transcriptase (surnageants de culture)” value (HIV1; 13 jours après l'infection, témoin virus 63944) was 1572, the “activité reverse transcriptase (surnageants de culture)” value (HIV1; 18 jours après l'infection, témoin virus 73368) was 1276 and the “activité reverse transcriptase (surnageants de culture)” value (HIV1; 20 jours après l'infection, témoin virus 26840) was 1270. For the same compound, the “activité reverse transcriptase / infectivité virale par rapport au témoin virus (result in words)” value (HIV1; lymphocytes incubés avec les produits) was “peuvent conduire à une inhibition totale de l'infectivité virale”, the inhibition at 30 µg/mL [1, 5] was 0% and the inhibition at 70 µg/mL [1, 5] was 0%. The inhibition at 150 µg/mL [1, 5] was 6%, the inhibition at 300 µg/mL [1, 5] was 38% and the inhibition at 600 µg/mL [1, 5] was 47%. For the same compound, the inhibition at 1200 µg/mL [1, 5] was 68%, the inhibition at 2400 µg/mL [1, 5] was 41% and the minimal effective concentration ([1]; Vesicular stomatitis virus, L929, 72 h, read-out: a un effet jusqu'à une concentration de) was 1200 µg/mL. It also gave an inhibition at 300 µg/mL ([2]; 0,3 mg/ml) of 48%, an inhibition at 600 µg/mL ([2]; 0,6 mg/ml) of 50% and an inhibition at 70 µg/mL ([2]; 0,07 mg/ml) of 28%. It also gave an inhibition at 150 µg/mL ([2]; 0,15 mg/ml) of 40%, an inhibition at 1200 µg/mL ([2]; 1,2 mg/ml) of 57% and an inhibition at 2400 µg/mL ([2]; 2,4 mg/ml) of 92%. For the same compound, the minimal effective concentration ([2]; 48 h, lowest concentration stated as seroneutralising, virus HVE, read-out: peut séroneutraliser le virus jusqu'à une concentration de) was 600 µg/mL, the Activité reverse transcriptase ([3]; 10^-3M) was 5444 and the Activité reverse transcriptase ([3]; 10^-6M) was 3424. For the same compound, the Activité reverse transcriptase ([3]; 10^-7M) was 4090 and the Activité reverse transcriptase ([3]; 10^-9M) was 3638.

With TNP-BSA the “% Inhibition” value ([4]; 0,3 mg/ml) was 37%, the “% Inhibition” value ([4]; 0,6 mg/ml) was 51% and the “% Inhibition” value ([4]; 0,07 mg/ml) was 21%. For the same compound, the “% Inhibition” value ([4]; 0,15 mg/ml) was 31%, the “% Inhibition” value ([4]; 1,2 mg/ml) was 73% and the “% Inhibition” value ([4]; 2,4 mg/ml) was 72%. For the same compound, the “% Inhibition” value ([1]; 0,03 mg/ml) was 0%, the “% Inhibition” value ([1]; 0,5 mg/ml) was 12% and the “% Inhibition” value ([1]; 0,06 mg/ml) was 0%. For the same compound, the “% Inhibition” value ([1]; 0,12 mg/ml) was 0%, the “% Inhibition” value ([1]; 0,25 mg/ml) was 0% and the “% Inhibition” value ([1]; 1,0 mg/ml) was 15%. The “% Inhibition” value ([1]; 2,0 mg/ml) was 24%, the “% Inhibition” value ([2]; 0,03 mg/ml) was 0% and the “% Inhibition” value ([2]; 0,5 mg/ml) was 55%. The “% Inhibition” value ([2]; 0,06 mg/ml) was 5%, the “% Inhibition” value ([2]; 0,12 mg/ml) was 16% and the “% Inhibition” value ([2]; 0,25 mg/ml) was 35%. For the same compound, the “% Inhibition” value ([2]; 1,0 mg/ml) was 79%.
